Experimental findings from ChEMBL document CHEMBL1133077, “Pyrrolo[3,2-c]pyridine derivatives as inhibitors of platelet aggregation” (Bioorg Med Chem Lett, 2000) are described below.

One data set is filed under the species Homo sapiens. Put plainly: Compound was evaluated for inhibition of ADP-mediated platelet aggregation. Format: functional. More on the design: concentration or dose not given beside the values.
Data set [1] in a line: 1-Octanol/water distribution coefficient measured at 7.4. Particulars: pH 7.4. Format: physicochemical.

A word on the Inhibition: it is the change of the read-out against control, counted positive when it falls. By logD is commonly meant lipophilicity at a set pH, counting ionised and neutral species. In the data set filed under Homo sapiens, `CC1CNC(C)c2cc[nH]c21` (stereo not given) returned an Inhibition of 26%. For the same compound, the logD in data set [1] is -1.08.
In the same order, the values of `CC1CN(C)C(C)c2cc([N+](=O)[O-])[nH]c21` (stereo not given) are 3.6% and 1.14.
Turning to `CC1CN(C)C(C)c2cc[nH]c21` (stereo not given), the Inhibition in the data set listed under Homo sapiens was determined as 28.5%. Further, in data set [1], the logD was -0.41.
Taken in the same sequence, the figures for `CC1CN(C)C(C)c2cc(C=O)[nH]c21` (stereo not given) were 48% and 0.69.
For `C=Cn1ccc2c1CCN(Cc1ccccc1)C2`, the Inhibition in the data set filed under Homo sapiens was found to be 38.7%.
`CCN1CCc2[nH]ccc2C1` came in with an Inhibition in the data set listed under Homo sapiens of 23.7%.
The same measure, in the same setting: to `CC1CN(C)C(C)c2cc(CO)[nH]c21` (stereo not given) belongs 3.3%; to `CC1CN(C)C(C)c2cc(/C=N/CCO)[nH]c21` (stereo not given), 12.2%.
On to `c1ccc(CN2CCc3[nH]ccc3C2)cc1`, for which the Inhibition in the data set filed under Homo sapiens came out at 46.5%. The compound further gave a logD in data set [1] of 1.59.
Take `Clc1ccccc1CN1CCc2sccc2C1` [TICLOPIDINE]: the Inhibition in the data set listed under Homo sapiens turned out to be 48.5%.
